# Measured values published in patent publication US20190388389A1, “METHODS AND COMPOSITIONS OF CARNOSOL FOR INHIBITING UVB-INDUCED SKIN DAMAGE” (Ohio University, priority 2017, published 2019).
# Columns and labels:
# [1] = test system: intracellular ROS level in HaCaT cells; experiment: ROS measurement with CM-H2DCFDA after UVB radiation; type: cell-based, Human; conditions: for ROS level post-UVB: UVB 50 mJ/cm^2, 6 h, UVB alone 2.1-fold
# Description: FIG. 2: Dose dependent effect of carnosol on UVB-induced intracellular ROS level. HaCaT cells were seeded in 96 well plate and incubated with CM-H2DCFDA dye one hour prior to UVB exposure, with or without carnosol treatment. ROS was measured at 6 h post UVB radiation with indicated concentration of carnosol treatment using ex490/em520 nm. The data represents three to five sets of independent experiments. *p<0.05 versus corresponded control group, **p<0.05 versus UV alone.
# FIGS. 3A-3B: Time dependent effect of carnosol on UVB-induced intracellular ROS level. HaCaT cells were seeded in 96 well plate and CM-H2DCFDA dye was used to measure intracellular ROS level. Carnosol (20 μM) was added to cells 1 h prior to UVB exposure, and ROS level was measured at 20 min intervals post UVB. (FIG. 3A) Intracellular ROS level at 20 min intervals with or without carnosol treatment. (FIG. 3B) Statistical analysis of intracellular ROS level at 240, 480, 720 min post UVB radiation with or without carnosol (20 μM) treatment. *p<0.05 versus corresponded control group, **p<0.05 versus corresponded UV group.
# (§1) UVB was generated from a Bench XX-Series UV Lamp (UVP Inc.) equipped with two 15-watt UVB tubes (UVP Inc.). The intensity of UVB was calibrated by a UVP model UVX digital radiometer (UVP Inc.) after the lamps warmed up for 5 min. For irradiating cells, the dose rate for 8 mJ/cm^2 or 50 mJ/cm^2 of UVB radiation was 0.8 or 3.8 mW/s respectively. Medium was removed before exposing the cells to UVB. After UVB radiation, fresh medium was added to the culture plates with or without drugs, and the cells were continue incubating at 37° C. with 5% CO2 until further analysis. Carnosol was disovled in DMSO and was irradiated with 50 mJ/cm^2 of UVB radiation at a dose rate of 3.8 mW/s before subjecting to cells or structure analysis using Mass Spectrum.
# (§2) Carnosol (Cayman) (FIG. 1) was added to cells at indicated concentration at 1 h before exposing the cells to UVB radiation. After radiation, cells were continuously incubated with or without carnosol in the medium until further analysis.
# CM-H2DCFDA (Invitrogen) was used to measure the total ROS level in cells. CM-H2DCFDA was dissolved in DMSO to a stock solution of 500 μM and diluted in PBS to final concentration of 5 μM. CM-H2DCFDA was added into cells 1 h prior to UVB exposure and the reading of fluorescence dye was recorded every 20 minutes using luminometer (Molecular devices Spectra Max M2).
# HaCaT cells = experiment: Cell survival analysis (Annexin V/PI flow cytometry), HaCaT; type: cell-based
# Description: (§3) FIGS. 6A-6C: Carnosol protects UVB-induced cell death. Cells were exposed to UVB radiation with different dose of carnosol treatment. At indicated time point, cells were collected and Annexin V/PI apoptosis detection kit was used to detect cell apoptosis. (FIG. 6A) HaCaT cell survival rate with different concentrations (μM) of carnosol treatment at 12 h post UVB radiation. (FIG. 6B) Time dependent assay (h) in the presence or absence of carnosol treatment in HaCaT cells. (FIG. 6C) MEF cells treated with 20 μM carnosol at indicated time point (h). The error bars present the standard deviation of three sets of independent experiments. *p<0.05 versus control group; **p<0.05 versus corresponded UV group.
# as §1, §2
# (§4) Total cell number of 1×10^5 was used for each analysis using flow cytometer. Fluorescein isothiocyanate (FITC) conjugated-annexin V (ANXS)/propidium iodide (PI) apoptosis detection kit (BD Biosciences) were used to stain the cells through the determination of the loss of membrane phospholipid […] and membrane integrity. Cell survival rate (R) was calculated as: R=[1×10^5−number of positive stained cells]/1×10^5. Briefly, the cells were harvested by 0.25% trypsin digestion, combined with the cells floating in the medium and washed twice with cold PBS. The cells were then suspended in ANXS binding buffer (10 mM Hepes/NaOH, pH 7.4, 140 mM NaCl and 2.5 mM CaCl2). The cell suspension was mixed with 5 μL ANXS-FITC and 5 μL PI. The cell mixture was incubated for […] in dark at room temperature and the ANXS/PI double-stained cells were analyzed using a FACSort Flow Cytometer (BD Science) equipped with CellQuest software (BD Science).
# [2] = test system: A431 human squamous carcinoma cell; experiment: MTT cell viability assay, A431; type: cell-based; conditions: A431, carnosol plus 50 mJ/cm^2 UVB, 24 h, vs no treatment control; UVB alone about 50%
# Description: FIGS. 9A-9B. Carnosol decreases A431 cancer cell progression. Squamous carcinoma cell A431 was used to determine the effect of carnosol on cancer cell progression. (FIG. 9A) Effect of carnosol on cell viability. Cells were treated upon 50 mJ/cm^2 UVB radiation with or without carnosol treatment. After 24 h, cells were collect and MTT assay was performed to determine the cell viability. *p<0.05 versus control group, **p<0.05 versus UV group at indicated time point. (FIG. 9B) Effect of carnosol on clonogenic assay. Cells were exposed to 8 mJ/cm^2 UVB exposure in the presence or absence of carnosol. 5×10^3 cells were plated into 6 well plate immediately after treatment and incubated for […]. The error bars present the standard deviation of three sets of independent experiments. *p<0.05 versus control group, **p<0.05 versus UV group at indicated time point.
# Since carnosol protects cell death upon UVB radiation, how carnosol affects skin cancer cells was also determined. A431 human squamous carcinoma cell was used as it is one of the cancer types that keratinocyte would develop. Cell viability was determined by MTT assay.
# MEF cells = experiment: Cell survival analysis (Annexin V/PI flow cytometry), MEF; type: cell-based, mouse; conditions: 20 μM carnosol
# Description: as §3, §1, §2, §4
# normal skin cells = experiment: Cell viability with carnosol or its UVB-decomposed molecules (FIG. 12); type: cell-based; conditions: within 12 h after treatment
# Description: FIG. 12. The effect of carnosol or its decomposed molecules on cell viability. Cell viability assay of carnosol and its UVB-decomposed molecules on normal skin cells in a time dependent manner (6, 12, and 24 h after UVB radiation).
# as §1
smiles,measurement,setting,value
CC(C)c1cc2c(c(O)c1O)[C@@]13CCCC(C)(C)[C@@H]1C[C@@H]2OC3=O [carnosol],ROS level post-UVB,[1]; 0.1 μM carnosol,not statistically significantly changed
same,ROS level post-UVB,[1]; 0.5 μM carnosol,not statistically significantly changed
same,ROS level post-UVB,[1]; 10 μM carnosol,about 1.5 fold
same,ROS level in the irradiated cells,"[1]; 20 μM carnosol, 20 min to 10 h post-UVB",continuously reduces
same,decrease of ROS level,"[1]; 20 μM carnosol, 240 min after UVB",~30%
same,decrease of ROS level,"[1]; 20 μM carnosol, 480 min after UVB",~30%
same,decrease of ROS level,"[1]; 20 μM carnosol, 720 min after UVB",~30%
same,ROS level post-UVB,[1]; 20 μM carnosol,~1.3 fold
same,decrease of ROS level,"[1]; 20 μM carnosol, immediately after UVB treatment",20%
same,ROS level in untreated cells,"[1]; 20 μM carnosol, no UVB, 20 min intervals up to 12 h",did not statistically significant affect
same,ROS level post-UVB,[1]; 30 μM carnosol,~1.3 fold
same,ROS level,"[1]; carnosol alone 0.1 μM to 30 μM, no UVB (Control), 6 h",no statistic significant effect
same,cell survival with UVB radiation,"HaCaT cells; 1 μM carnosol, 12 h post UVB",no statistically significant effect
same,cell survival with UVB radiation,"HaCaT cells; 10 μM carnosol, 12 h post UVB",no statistically significant effect
same,toxicity to the cells without UVB radiation,HaCaT cells; 30 μM carnosol,limited toxicity
same,cell survival,"HaCaT cells; carnosol alone 1-30 μM, no UVB, 12 h",no significant cell survival change
same,cell survival rate,"HaCaT cells; dose assay, 20 μM carnosol, 12 h post UVB, UVB alone 20%",30%
same,cell survival rate,"HaCaT cells; dose assay, 30 μM carnosol, 12 h post UVB, vs 20 μM",no further increasing
same,cell survival rate,"HaCaT cells; time assay, 20 μM carnosol, 6 h post UVB",no significance
same,cell survival rate,"HaCaT cells; time assay, 20 μM carnosol, 12 h post UVB, UVB alone 30%",40%
same,cell survival rate,"HaCaT cells; time assay, 20 μM carnosol, 24 h post UVB, UVB alone 7%",15%
same,cell viability,[2],30%
same,cell survival rate,"MEF cells; 12 h post UVB, UVB alone about 88%",97%
same,cell survival rate,"MEF cells; 24 h post UVB, UVB alone 80%",90%
same,cell survival rate,"MEF cells; 36 h post UVB, UVB alone 62%",70%
same,cell survival rate,"MEF cells; 48 h post UVB, UVB alone 43%",58%
same,protection of cell damage from UVB radiation (viability),normal skin cells,can protect cell damage from UVB radiation in short term
